Results taken from patent US20040215284A1, “Treatment of neuromuscular dysfunction of the lower urinary tract with selective mGlu5 antagonists” (Recordati S.A., priority 2003, published 2004).
Where two headings read alike, the source gives them in different places.

Assays:
mGlu1 = molecular target: T1, mGlu1 (Rattus norvegicus, UniProt P23385); test: Radioligand binding assay at mGlu1, [3H]quisqualic acid, rat cerebellum membranes; settings: for Ki: [3H]quisqualic acid
T1 construct: pellets from rat cerebellum were resuspended; from tissue; host or cells: rat cerebellum membranes (male Sprague Dawley)
Method: (§1) Male Sprague Dawley rats (200-300 g, Charles River, Italy) were killed by cervical dislocation and the forebrain (cortex, striatum and hippocampus) and cerebellum were homogenized (2×20 sec) in 50 vols of cold 50 mM Tris buffer pH 7.4, using a Politron homogenizer (Kinematica). […] The final pellets were frozen and stored at −80° C. until use.
i) mGlu1: On experimental section pellets from rat cerebellum were resuspended in 150-200 vols of 20 mM N-2-hydroxyethylpiperazine-N′-2-ethanesulfonic acid (HEPES), 2 mM MgCl2, 2 mM CaCl2, pH 7.4.
(§2) The filters were then washed with cold buffer and the radioactivity retained on the filters was counted by liquid scintillation spectrometry.
(§3) Data were expressed as the mean of pKi(−log Ki)±SE.

[1] = molecular target: Group II (mGlu2 + mGlu3) receptors; test: Radioligand binding assay at Group II (mGlu2+mGlu3), [3H]LY341495, rat forebrain membranes; settings: for Ki: [3H]LY341495
Method: as §1
iii) Group II (mGlu2+mGlu3): On experimental section pellets from rat forebrain were resuspended in 250 vols of 20 mM HEPES, 2 mM MgCl2, 2 mM CaCl2, pH 7.4. The membranes were incubated in a final volume of 1 ml for 30 min at 0° C. with 1 nM [^3H]LY341495 in the absence or presence of competing drugs.
as §2, §3

mGlu5a = mGlu5a (Homo sapiens, UniProt P41594); settings: literature, functional models; cited from earlier work
mGlu5 [2] = molecular target: T2, mGlu5 (Rattus norvegicus, UniProt P31424); settings: rat forebrain; for Ki: read-out: mGlu5 Ki, [3H]MPEP
Method: as §1
(§4) ii) mGlu5: On experimental section pellets from rat forebrain were resuspended in 100 vols of 20 mM HEPES, 2 mM MgCl2, 2 mM CaCl2, pH 7.4.
as §2, §3

mGlu2 = mGlu2 (Homo sapiens, UniProt Q14416); settings: cited from earlier work; for IC50: literature, functional models
[3] = tested on: rhythmic bladder-voiding contractions in anaesthetised rats; test: Rhythmic bladder-voiding contractions induced by bladder filling in anaesthetised rats; format: in vivo, rat; settings: for BLADDER CONTRACTIONS quiescence time: mean ± SEM; for ED10min (extrapolated dose inducing 10 min of bladder quiescence): linear regression
Method: The animals were housed with free access to food and water and maintained on a forced 12-hour alternating light-dark cycle at 22-24° C. for at least one week, except during the experiment. […] The catheter was tied in place with a ligature around the external urethral orifice and was connected to conventional pressure transducers (Statham P23 ID/P23 XL). […] The bladder was then filled via the recording catheter by incremental volumes of warm (37° C.) saline until reflex bladder-voiding contractions occurred (usually 0.8-1.5 ml). For intravenous injection of bioactive compounds, PE 50 polyethylene tubing filled with physiological saline was inserted into the jugular vein.
From the cystometrogram, the number of contractions recorded 15 minutes before (basal values) and after treatment, as well as the mean amplitude of these contractions (mean height of the peaks in mmHg), were evaluated.
Morphine was tested, too, as a reference standard for this model.

mGlu4a = mGlu4a (Homo sapiens, UniProt Q14833); settings: literature, functional models; cited from earlier work
mGlu1a = mGlu1a (Homo sapiens, UniProt Q13255); settings: literature, functional models; cited from earlier work
mGlu7 = mGlu7 (Homo sapiens, UniProt Q14831); settings: literature, functional models; cited from earlier work
conscious rats = test: Cystometric parameters in conscious rats (bladder infused with saline); format: in vivo, rat
Method: Male Sprague-Dawley rats [Crl: CD® (SD) IGS BR] of 300-400 g b.w. supplied by Charles River Italia were used. The animals were housed with free access to food and water and maintained on a forced 12-hour-light/12-hour-dark cycle at 22-24° C. of temperature, except during the experiment. To quantify urodynamic parameters in conscious rats, cystometrographic studies were performed according to the procedure previously reported (Guarneri et al., Pharmacol. Res. 24: 75, 1991).
Briefly, the rats were anaesthetized by intraperitoneal administration of 3 ml/kg of Equithensin solution (pentobarbital 30 mg/kg and chloral hydrate 125 mg/kg) and placed in a supine position. An approximately 10 mm long midline incision was made in the shaved and cleaned abdominal wall. The urinary bladder was gently freed from adhering tissues, emptied and then cannulated via an incision in the bladder body, using a polyethylene cannula (0.58 mm internal diameter, 0.96 mm external diameter) which was permanently sutured with silk thread. For intravenous bolus injection, a similar polyethylene tubing filled with physiological saline containing sodium heparin (40 I.U./ml) was inserted into the jugular vein. The cannulae were exteriorized through a subcutaneous tunnel in the retroscapular area, where they were connected to a plastic adapter in order to avoid the risk of removal by the animal. For drug testing, the rats were utilized one day after implantation.
On the day of the experiment, the rats were placed in modified Bollman cages, i.e., restraining cages that were large enough to permit the rats to adopt a normal crouched posture, but narrow enough to prevent turning around. After a stabilization period of about 20 minutes, the free tip of the bladder cannula was connected through a T-shaped tube to a pressure transducer (Statham P23XL) and to a peristaltic pump (Gilson minipuls 2) for continuous infusion of a warm (37° C.) saline solution into the urinary bladder, at a constant rate of 0.1 ml/minute. The intraluminal-pressure signal during infusion of saline into the bladder was continuously recorded on a polygraph (Rectigraph-8K San-ei with BM614/2 amplifier from Biomedica Mangoni) and, from the cystometrogram, two urodynamic parameters were evaluated: bladder volume capacity (BVC) and micturition pressure (MP). BVC (in ml) is defined as the volume of saline infused into the bladder necessary to induce detrusor contraction followed by micturition. MP (in mmHg) is defined as the maximal intravesical pressure caused by contraction during micturition. Basal BVC and MP values were evaluated as the mean of the values observed in the cystometrograms recorded in an initial period of 30-60 minutes. At this point in the assay, the infusion was interrupted and the test compounds were administered either intravenously by the jugular catheter or orally by a stomach tube. The bladder infusion restarted and changes in BVC and MP were evaluated from the mean values obtained in the cystometrograms observed during 1, 2, 3, 4, and 5 hours after treatment. The compounds were administered in a volume of 1 ml/kg and 2 ml/kg for intravenous and oral administration routes, respectively. Groups of control animals received the same amount of vehicle corresponding to a solution of 8% dimethylformamide and 8% Tween 80 in water (final concentrations) for intravenous, or a solution of 0.5% methocel in water for oral route.
Under the given test conditions, measurement of BVC is equivalent to measurement of interval time between micturitions.
All data were expressed as mean±standard error. The percent changes of BVC and MP relative to the basal values, as well as Δ values (difference in ml or in mmHg) of BVC and MP (BVC or MP at time “x” minus basal value), were also evaluated for each rat/time. In the figures, data were reported as percentage changes relative to basal values. […]

[4] = tested on: conscious rats with bladder infused with dilute acetic acid; test: Cystometric parameters in conscious rats with bladder infused with dilute acetic acid; format: in vivo, rat; settings: 10 mg/kg oral, bladder infused with 0.2% acetic acid
Method: The method used was that described in Example 4. The basal BVC and MP values were evaluated as the mean of the values observed in the cystometrograms recorded over an initial period of 30-60 minutes. At this point in the test, the infusion was stopped and the test compounds were administered orally via gastric intubation. Infusion into the bladder was resumed, replacing the warm saline solution with dilute acetic acid (0.2%) and the variations in BVC and MP recorded were evaluated as mean values obtained in the cystometrograms 1, 2, 3 and 4 hours after the treatment, relative to the basal values. The compounds were administered in a volume of 2 ml/kg and the groups of control animals received the same amount of vehicle (0.5% Methocel in water) orally.
The statistical analysis of the data was performed as reported in Example 4.

mGlu8 = mGlu8 (Homo sapiens, UniProt O00222); settings: literature, functional models; cited from earlier work
mGlu6 = mGlu6 (Homo sapiens, UniProt O15303); settings: literature, functional models; cited from earlier work
mGlu5 [5] = molecular target: T2, mGlu5; test: biochemical
Method: as §1, §4, §2, §3

[6] = i.v., MPEP 3 and 10 mg/kg, SIB 1893 50 mg/kg, FIG. 2

Chain of mGlu2 (Q14416 19-872): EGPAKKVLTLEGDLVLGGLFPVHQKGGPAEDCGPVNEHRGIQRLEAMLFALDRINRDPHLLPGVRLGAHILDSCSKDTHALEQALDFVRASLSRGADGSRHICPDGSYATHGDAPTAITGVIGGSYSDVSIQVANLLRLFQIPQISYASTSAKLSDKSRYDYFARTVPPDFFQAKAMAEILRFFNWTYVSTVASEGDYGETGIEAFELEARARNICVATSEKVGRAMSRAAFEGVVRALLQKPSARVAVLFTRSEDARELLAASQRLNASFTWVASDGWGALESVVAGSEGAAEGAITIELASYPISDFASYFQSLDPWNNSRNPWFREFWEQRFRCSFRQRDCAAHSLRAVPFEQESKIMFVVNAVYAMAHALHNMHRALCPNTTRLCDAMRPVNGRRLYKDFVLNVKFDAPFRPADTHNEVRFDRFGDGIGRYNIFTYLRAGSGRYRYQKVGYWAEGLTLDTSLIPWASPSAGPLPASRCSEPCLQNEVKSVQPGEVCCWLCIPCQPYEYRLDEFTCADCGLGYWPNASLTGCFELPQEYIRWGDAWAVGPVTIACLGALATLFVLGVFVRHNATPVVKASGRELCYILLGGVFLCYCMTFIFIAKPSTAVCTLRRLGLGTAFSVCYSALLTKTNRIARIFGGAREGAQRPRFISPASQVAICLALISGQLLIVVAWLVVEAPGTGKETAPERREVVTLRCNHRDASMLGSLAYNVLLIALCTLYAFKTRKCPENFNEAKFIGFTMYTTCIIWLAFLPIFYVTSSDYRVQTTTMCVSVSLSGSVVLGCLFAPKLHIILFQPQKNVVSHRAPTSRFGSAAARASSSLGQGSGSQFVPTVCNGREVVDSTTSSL
T1 sequence (P23385 19-1199): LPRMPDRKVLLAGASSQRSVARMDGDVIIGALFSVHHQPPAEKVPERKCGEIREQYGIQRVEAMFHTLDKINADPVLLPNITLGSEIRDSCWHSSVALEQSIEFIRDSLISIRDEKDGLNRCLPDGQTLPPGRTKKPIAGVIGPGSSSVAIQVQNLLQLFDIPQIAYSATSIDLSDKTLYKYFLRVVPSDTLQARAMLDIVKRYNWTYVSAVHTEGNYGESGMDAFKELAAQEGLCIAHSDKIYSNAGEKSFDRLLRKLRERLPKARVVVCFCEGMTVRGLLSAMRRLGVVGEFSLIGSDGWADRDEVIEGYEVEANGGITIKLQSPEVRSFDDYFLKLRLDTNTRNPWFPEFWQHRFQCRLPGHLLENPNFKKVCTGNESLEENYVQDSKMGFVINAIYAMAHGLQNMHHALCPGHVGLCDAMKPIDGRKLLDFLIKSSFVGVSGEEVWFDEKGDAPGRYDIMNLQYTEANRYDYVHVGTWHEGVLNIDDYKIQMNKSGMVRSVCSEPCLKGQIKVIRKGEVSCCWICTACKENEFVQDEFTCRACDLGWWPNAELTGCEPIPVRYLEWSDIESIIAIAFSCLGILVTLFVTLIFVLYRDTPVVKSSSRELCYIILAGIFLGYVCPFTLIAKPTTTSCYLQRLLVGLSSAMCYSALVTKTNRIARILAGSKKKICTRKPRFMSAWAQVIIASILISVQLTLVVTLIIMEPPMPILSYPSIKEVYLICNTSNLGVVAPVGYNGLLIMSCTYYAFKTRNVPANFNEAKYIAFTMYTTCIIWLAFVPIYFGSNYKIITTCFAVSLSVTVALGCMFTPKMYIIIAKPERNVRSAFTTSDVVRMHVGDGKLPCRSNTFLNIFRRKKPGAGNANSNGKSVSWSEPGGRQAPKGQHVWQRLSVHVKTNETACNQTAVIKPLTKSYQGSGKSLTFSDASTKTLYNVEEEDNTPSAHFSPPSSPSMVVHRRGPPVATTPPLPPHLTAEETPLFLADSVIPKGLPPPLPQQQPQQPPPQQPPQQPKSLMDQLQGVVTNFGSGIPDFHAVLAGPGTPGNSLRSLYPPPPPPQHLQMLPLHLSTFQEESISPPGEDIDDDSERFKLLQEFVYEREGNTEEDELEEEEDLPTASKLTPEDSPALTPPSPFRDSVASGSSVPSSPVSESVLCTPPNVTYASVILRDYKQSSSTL
Chain of mGlu4a (Q14833 33-912): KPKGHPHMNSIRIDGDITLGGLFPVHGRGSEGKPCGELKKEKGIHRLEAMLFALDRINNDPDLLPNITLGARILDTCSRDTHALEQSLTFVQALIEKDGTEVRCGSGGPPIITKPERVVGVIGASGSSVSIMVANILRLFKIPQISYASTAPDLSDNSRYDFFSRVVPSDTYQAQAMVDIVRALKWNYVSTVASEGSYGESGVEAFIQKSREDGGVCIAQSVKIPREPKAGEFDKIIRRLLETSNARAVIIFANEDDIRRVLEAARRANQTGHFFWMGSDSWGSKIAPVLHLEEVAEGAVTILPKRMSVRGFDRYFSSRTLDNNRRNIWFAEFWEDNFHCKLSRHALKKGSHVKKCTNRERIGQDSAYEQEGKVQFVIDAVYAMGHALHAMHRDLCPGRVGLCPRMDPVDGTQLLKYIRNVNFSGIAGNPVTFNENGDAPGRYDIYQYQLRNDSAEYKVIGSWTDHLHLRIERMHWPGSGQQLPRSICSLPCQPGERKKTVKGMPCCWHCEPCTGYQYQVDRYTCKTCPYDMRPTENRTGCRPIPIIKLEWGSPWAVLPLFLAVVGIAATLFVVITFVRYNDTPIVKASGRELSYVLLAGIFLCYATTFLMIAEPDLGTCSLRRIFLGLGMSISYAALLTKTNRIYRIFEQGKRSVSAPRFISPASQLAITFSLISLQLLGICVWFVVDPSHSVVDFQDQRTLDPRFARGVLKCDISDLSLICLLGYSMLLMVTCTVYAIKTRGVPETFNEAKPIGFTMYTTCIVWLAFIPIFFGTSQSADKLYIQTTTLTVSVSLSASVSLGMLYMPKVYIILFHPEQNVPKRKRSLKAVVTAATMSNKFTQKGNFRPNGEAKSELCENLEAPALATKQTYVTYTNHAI
Chain of mGlu1a (Q13255 19-1194): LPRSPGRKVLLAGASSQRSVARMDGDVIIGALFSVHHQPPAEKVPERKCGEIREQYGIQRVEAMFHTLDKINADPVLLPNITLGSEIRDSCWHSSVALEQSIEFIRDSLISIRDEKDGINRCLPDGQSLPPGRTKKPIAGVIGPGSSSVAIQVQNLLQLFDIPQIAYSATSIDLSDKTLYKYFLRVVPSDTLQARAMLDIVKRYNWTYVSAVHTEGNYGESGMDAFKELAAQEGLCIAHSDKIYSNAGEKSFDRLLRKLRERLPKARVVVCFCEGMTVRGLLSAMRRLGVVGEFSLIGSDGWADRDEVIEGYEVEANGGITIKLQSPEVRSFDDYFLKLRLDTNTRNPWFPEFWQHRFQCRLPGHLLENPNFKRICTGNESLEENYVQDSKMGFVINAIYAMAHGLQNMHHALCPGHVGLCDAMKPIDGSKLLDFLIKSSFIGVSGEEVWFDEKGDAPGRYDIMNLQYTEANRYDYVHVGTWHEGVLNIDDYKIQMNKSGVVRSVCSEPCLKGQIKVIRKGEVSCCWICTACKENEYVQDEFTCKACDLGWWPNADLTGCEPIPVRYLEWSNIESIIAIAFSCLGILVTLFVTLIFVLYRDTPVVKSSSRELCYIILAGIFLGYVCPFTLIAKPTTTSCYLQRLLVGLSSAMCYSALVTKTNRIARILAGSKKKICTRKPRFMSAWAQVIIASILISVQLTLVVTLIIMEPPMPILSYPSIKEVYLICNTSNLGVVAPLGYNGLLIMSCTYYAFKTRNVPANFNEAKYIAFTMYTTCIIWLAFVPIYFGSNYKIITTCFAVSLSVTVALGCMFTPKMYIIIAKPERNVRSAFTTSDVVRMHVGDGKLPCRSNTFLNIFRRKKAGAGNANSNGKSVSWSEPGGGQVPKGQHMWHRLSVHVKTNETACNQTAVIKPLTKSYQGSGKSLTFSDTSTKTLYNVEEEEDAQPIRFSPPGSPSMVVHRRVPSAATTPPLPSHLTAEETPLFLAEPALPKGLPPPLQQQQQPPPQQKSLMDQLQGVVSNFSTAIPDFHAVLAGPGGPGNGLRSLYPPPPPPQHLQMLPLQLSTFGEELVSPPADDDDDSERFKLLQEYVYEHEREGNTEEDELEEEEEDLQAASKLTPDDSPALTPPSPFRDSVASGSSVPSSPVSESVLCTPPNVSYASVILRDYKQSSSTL
Chain of mGlu8 (O00222 34-908): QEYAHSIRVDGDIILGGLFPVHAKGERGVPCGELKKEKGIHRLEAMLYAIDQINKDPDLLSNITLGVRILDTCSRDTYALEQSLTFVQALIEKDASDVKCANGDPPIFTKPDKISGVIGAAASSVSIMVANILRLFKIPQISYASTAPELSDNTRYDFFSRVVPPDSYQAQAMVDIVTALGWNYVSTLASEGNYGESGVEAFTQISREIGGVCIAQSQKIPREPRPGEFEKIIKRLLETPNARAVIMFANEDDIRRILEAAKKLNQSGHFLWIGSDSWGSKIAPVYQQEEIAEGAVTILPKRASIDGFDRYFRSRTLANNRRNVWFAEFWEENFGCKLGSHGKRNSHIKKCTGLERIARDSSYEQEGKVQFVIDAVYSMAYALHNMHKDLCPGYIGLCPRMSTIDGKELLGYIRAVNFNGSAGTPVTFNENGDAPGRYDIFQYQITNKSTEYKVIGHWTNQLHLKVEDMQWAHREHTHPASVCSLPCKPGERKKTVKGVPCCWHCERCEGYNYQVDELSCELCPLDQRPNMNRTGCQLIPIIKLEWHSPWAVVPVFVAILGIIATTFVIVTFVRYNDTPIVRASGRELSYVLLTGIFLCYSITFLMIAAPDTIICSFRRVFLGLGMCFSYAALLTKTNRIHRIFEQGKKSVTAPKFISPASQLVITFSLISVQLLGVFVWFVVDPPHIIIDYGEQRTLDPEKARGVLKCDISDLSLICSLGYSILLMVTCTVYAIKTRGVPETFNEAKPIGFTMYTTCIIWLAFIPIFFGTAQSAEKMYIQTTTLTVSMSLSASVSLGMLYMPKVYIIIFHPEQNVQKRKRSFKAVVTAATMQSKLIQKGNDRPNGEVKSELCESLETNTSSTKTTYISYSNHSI

Row | SMILES | Ki (mGlu1) [µM] | Ki ([1]; rat forebrain) [µM] | IC50 (mGlu5a) [µM] | BLADDER CONTRACTIONS quiescence time ([3]; 1000 μg/kg i.v.) [min] | BLADDER CONTRACTIONS quiescence time ([3]; 3000 μg/kg i.v.) [min] | activity as inhibitors of isovolumic voiding contractions (in words) ([3]; i.v., anaesthetised rats) | ED10min (extrapolated dose inducing 10 min of bladder quiescence) ([3]; i.v.) [mg/kg] | IC50 (mGlu4a) [µM] | BLADDER CONTRACTIONS quiescence time ([3]; 100 μg/kg i.v.) [min] | BLADDER CONTRACTIONS quiescence time ([3]; 300 μg/kg i.v.) [min] | IC50 (mGlu1a) [µM] | inhibition of the specific binding of [3H]MPEP to mGlu5 receptor (in words) (mGlu5 [2]) | BLADDER CONTRACTIONS quiescence time ([3]; 30 μg/kg i.v.) [min] | also measured
1 | NC1(C(=O)O)CCc2cc(C(=O)O)ccc21 (stereo not shown) [AIDA] | > 10 | > 10 | > 1000 | 1.50 ± 0.54 | 2.33 ± 1.44 | inactive | >10 | > 1000 | – | – | – | – | – | Ki (mGlu5 [2]): > 10 µM; mGlu2 activity (in words) (mGlu2; literature (Moroni et al. 1997)): Weak; BLADDER CONTRACTIONS quiescence time ([3]; 10000 μg/kg i.v.): 2.35 ± 0.50 min
2 | N[C@](CC1c2ccccc2Oc2ccccc21)(C(=O)O)[C@H]1C[C@@H]1C(=O)O [LY 341495] | – | 0.004 | – | 4.65 ± 2.11 | – | inactive | >1 | – | 2.45 ± 1.39 | 4.48 ± 1.31 | – | – | – | displacement of specific binding of [3H]LY341495 to Group II receptors (in words) ([1]; rat forebrain): displaced with high affinity
3 | Cc1cc(C(=O)O)ccc1[C@H](N)C(=O)O [LY 367385] | 6 | > 1 | > 100 | – | 1.00 ± 0.29 | inactive | >10 | – | – | – | 8.8 | – | – | displacement of [3H]quisqualic acid from its binding sites (in words) (mGlu1): significantly displaced; Ki (mGlu5 [2]): > 10 µM; BLADDER CONTRACTIONS quiescence time ([3]; 10000 μg/kg i.v.): 1.95 ± 0.30 min
4 | Cc1cccc(C#Cc2ccccc2)n1 [MPEP, 2-methyl-6-(phenylethynyl)pyridine] | > 10 | > 1 | – | 22.46 ± 5.35 | – | active | 0.15 | > 100 | 7.09 ± 1.04 | 12.64 ± 1.72 | > 100 | most potent inhibitors | 3.90 ± 1.37 | IC50 (mGlu7): > 100 µM; bladder volume capacity (BVC) (conscious rats; 10 mg/kg i.v., vs basal values and vs control group, FIG. 1): significant increases in BVC; bladder volume capacity (BVC) (conscious rats; 3 and 10 mg/kg i.v., FIG. 1): effective in increasing the bladder volume capacity; micturition pressure (MP) (conscious rats; [6]): only mild effects on the micturition pressure; bladder volume capacity (BVC) (conscious rats; oral, 3-10 and 30 mg/kg, effect at 10 mg/kg or higher, FIG. 3): significant and dose-dependent increases in the BVC; micturition pressure (MP) (conscious rats; oral, 10 and 30 mg/kg, vs control group, FIG. 4): significantly reduced the MP; bladder volume capacity (BVC) ([4]; FIG. 5): effective in antagonizing the reduction of the bladder volume capacity; micturition pressure (MP) ([4]; FIG. 6): no effect on the micturition pressure; IC50 (mGlu8): > 100 µM; IC50 (mGlu2): > 100 µM; IC50 (mGlu6): > 100 µM
5 | Cc1nc(C#Cc2cccnc2)cs1 [MTEP, 3-(2-methylthiazol-4-yl)ethynylpyridine] | – | – | – | 20.96 ± 4.66 | – | active | 0.106 | – | 8.73 ± 2.11 | 13.90 ± 2.10 | – | most potent inhibitors | 5.52 ± 1.09 | –
6 | CN1CC[C@]23c4c5ccc(O)c4O[C@H]2[C@@H](O)C=C[C@H]3[C@H]1C5 [Morphine] | – | – | – | – | – | – | 0.05 | – | 13.83 ± 2.40 | 18.17 ± 3.60 | – | – | 6.89 ± 2.11 | BLADDER CONTRACTIONS quiescence time ([3]; 10 μg/kg i.v.): 2.76 ± 0.93 min
7 | Cc1cccc(C=Cc2ccccc2)n1 [SIB 1893, 2-methyl-6-(2-phenylethenyl)pyridine] | > 10 | > 10 | 0.3 | 4.44 ± 1.05 | 15.57 ± 1.34 | active | 1.928 | > 30 | – | – | > 30 | weaker affinity | – | IC50 (mGlu7): > 30 µM; bladder volume capacity (BVC) (conscious rats; 50 mg/kg i.v., FIG. 1): significantly increased the BVC only in comparison with the basal values; micturition pressure (MP) (conscious rats; [6]): only mild effects on the micturition pressure; IC50 (mGlu8): > 30 µM; IC50 (mGlu2): > 30 µM; IC50 (mGlu6): > 30 µM; BLADDER CONTRACTIONS quiescence time ([3]; 2000 μg/kg i.v.): 8.00 ± 0.78 min; amplitude of contractions when contractions resumed, relative to before treatment (in words) ([3]; i.v., anaesthetised rats): no difference in the amplitude; Ki (mGlu5 [5]): 0.859 µM
8 | N[C@](CC1c2ccccc2Oc2ccccc21)(C(=O)O)[C@H]1C[C@@H]1C(=O)O [[^3H]LY341495] | – | – | – | – | – | – | – | – | – | – | – | – | – | Kd ([1]; rat forebrain membranes, saturable binding, read-out: Kd of radioligand binding to mGlu2+mGlu3 subtypes): 0.0025 µM
